Laboratory results: patent US11731933B2, “Device and method for the desalination of water by means of thermal deionisation and liquid-phase ion extraction liquid” (ADIONICS, priority 2015, dated 2023)
≈ marks a conversion by molar mass, not a printed value. Where “and” joins values, the source holds several entries; their conditions need not be identical. Equal entries are not always repeated. Where two headings read alike, the source gives them in different places.

Tests used:
pKa in water at 25° C. = type: physicochemical
Description: The pKa (or acid constant) is defined as pKa=−log10(Ka), where Ka is the acid dissociation constant which is measured in a standard manner for such pKa. The recommended standard measurement method for high, basic pKa is preferably that described by Popov and al, IUPAC—Guidelines for NMR measurements for determination of high and low pKa Pure Apl. Chem., Vol. 78, No. 3, pp. 663-675, 2006.

[1] = Solubility in water (UV-visible spectrometry); type: physicochemical; conditions: for solubility: water
Source text: The hydrophobicity or solubility of a compound can be measured by standard methods and in particular by UV-visible spectrometry.

Log P = type: physicochemical; conditions: for logP: Exp
[2] = NaCl extraction from 0.4M NaCl water by ASM + Calix[4]Est in chloroform (Example 11)
Description: The extraction composition is obtained by solubilizing an amount of 4-tert-butyl Calix[4]arene tetraethyl Ester (CAS No. 97600-39-0) and ASM in chloroform CHCl3 to obtain a final concentration after solubilization of the CEM and ASM of 0.3 mol/L for Calix[4]Est and of 0.3 mol/L for ASM, respectively. These sealed formulations were then orbitally stirred at 500 rpm for 2 hours after adding an equivalent volume of twice distilled water to allow water saturation of the entire formulation and control of pH output (pH=7). The extraction composition is then put to stand to settle. All the compositions tested are stable and rapidly decanted (a few minutes at the most).
A 0.4 mol/L NaCl aqueous solution was prepared from twice distilled water.
The organic extraction composition is then slightly heated to promote solubilization of the compounds by hot air gun (temperature of about 50 to 60° C.) for a few seconds (10 to 30 seconds) until a clear solution is obtained.
3 mL of the organic extraction composition is then removed from the lower phase of the settled two-phase mixture and transferred to a vial containing 3 mL of salt water at 0.4 M NaCl and then the flask is sealed and orbitally stirred (at 500 revolutions per minute), for 2 hours at room temperature (RT), that is to say between 20 and 25° C. In the case of extraction at 60° C., magnetic stirring (at 500 revolutions per minute), for 2 hours, is carried out with indirect heating in a metal mold on a heating plate. It is verified that droplets of the order of 1-2 mm are present during these agitations in order to be certain to achieve equilibrium in the NaCl distribution between the two liquid phases at the end of stirring. The appearance of the organic and aqueous phases is clear and colorless or slightly cloudy.
After stirring for 2 hours, stirring is stopped and the solution is put to stand to settle within 10 minutes, at least until the two phases have completely separated off, at the temperature of the test. The upper aqueous phase is then removed and then stirred and diluted for analysis of its salinity by a Metrohm Ion Chromatograph incorporating a suitable cation analysis column and a suitable anion analysis column. Similarly, the initial aqueous solution of NaCl at 0.4M is also analyzed by this ion chromatograph to determine its relative molar concentration in sodium and in chlorides. AN extractions and analyzes were duplicated.

[3] = NaCl extraction from 0.2M NaCl water by ASM/CEM composition, ion chromatography of treated water; conditions: ASM: 3TFMPhOH; CEM 0.2M; NaCl 0.2M water
Description: To 3 mL of 3-(trifluoromethyl)phenol, was added 217 mg of Dibenzo-18-crown-6 in order to obtain a formulation with 0.2 mole/L of DB18C6. This sealed formulation was then orbitally stirred at 500 rpm overnight after 1 mL of distilled water was added twice to allow water saturation of the whole.
The next morning, an aqueous 0.2 mol/L NaCl solution was prepared from twice distilled water, while the formulation that was stirred overnight was allowed to stand for decantation. A clear decantation of the two colorless phases is obtained in a few minutes. 3 mL of the organic extraction solution is then removed and transferred to a flask containing 3 mL of this salt water containing 0.2 M NaCl, then the flask is sealed and orbitally stirred (usually 500 rpm), for 3 hours and at room temperature. It is verified that droplets of the order of 1-2 mm are present in quantity at the selected stirring speed (400 to 900 rpm).
After stirring for 2 hours, stirring is stopped and the whole is left to stand for decantation for at least 10 minutes until the two phases are completely separated. The upper aqueous phase is then removed and then stirred and diluted for analysis of its salinity by a Metrohm Ion Chromatography Incorporating a suitable cation analysis column and a suitable anion analysis column. Similarly, the initial aqueous solution of 0.2M NaCl is also analyzed by this ion chromatography equipment to determine its relative concentration of sodium and chlorides. […]

[4] = methanol, published complexing constants; cited from earlier work
[5] = methanol; cited from earlier work
[6] = NaCl extraction from 0.2M NaCl water by ASM/CEM composition, ion chromatography of treated water; conditions: dichloromethane instead of 3TFMPhOH
[7] = RT, CEM 0.3 Mol/L, ASM 0.3 Mol/L in CHCl3, 0.4 M NaCl

SMILES	pKa (pKa in water at 25° C.)	Solubility in water [1] [µM]	Extraction rate at 23° C., Cl− [3] [%]	Extraction rate at 23° C., Na+ [3] [%]	Extraction rate at 23° C., mean NaCl [3] [%]	Log K(Na+, MeOH, 25° C.) [4]	Log K(K+, MeOH, 25° C.) [5]	other results
OCc1cc(C(F)(F)C(F)(F)C(F)(F)C(F)(F)F)cc(C(F)(F)C(F)(F)C(F)(F)C(F)(F)F)c1	14	–	–	–	–	–	–	solubility [1]: 0.5 µM (≈ 0.272 µg/mL)
OCc1cc(C(F)(F)F)c(C(F)(F)F)c(C(F)(F)F)c1	13.6	–	–	–	–	–	–	solubility ([1]; read-out: Solubility in water): 390 µM (≈ 122 µg/mL)
Oc1cccc(C(F)(F)F)c1 [ASM 1, 3-(Trifluoromethyl)phenol]	8.68	–	–	–	–	–	–	Log P (Log P): 2.95
OCc1cccc(C(F)(F)F)c1 [ASM 2, [3-(Trifluoromethyl)phenyl]methanol]	14.7	32000 (≈ 5640 µg/mL)	–	–	–	–	–	–
OCc1cc(C(F)(F)F)cc(C(F)(F)F)c1 [ASM 3, [3,5-Bis(Trifluoromethyl)phenyl]methanol]	14.7	–	–	–	–	–	–	NaCl - 20° C. % ext (average) ([2]; 20° C., average molar extraction): 7.9%; Mol % Cl- extracted from the water to be treated ([2]; 60° C., CEM 0.3 Mol/L, ASM 0.3 Mol/L in CHCl3, 0.4 M NaCl): not detected; NaCl - 60° C. % ext (average) ([2]; 60° C., average molar extraction): 0.0%; Mol % Cl- extracted from the water to be treated [2, 7]: 8.2% and 8.8%; Mol % Na+ extracted from the water to be treated [2, 7]: 6.8% and 7.6%; Δ % ext ([2]; difference 20° C. minus 60° C.): 7.9%; solubility ([1]; read-out: Solubility in water): 2290 µM (≈ 559 µg/mL)
OCc1cccc(C(F)(F)C(F)(F)C(F)(F)C(F)(F)F)c1 [ASM 5, [3-(Perfluorobutyl)phenyl]methanol]	14.7	< 77	–	–	–	–	–	solubility [1]: < 77 µM
OCc1cc(C(F)(F)C(F)(F)C(F)(F)F)cc(C(F)(F)C(F)(F)C(F)(F)F)c1 [ASM 6, [3,5-(Perfluoropropyl)phenyl]methanol]	14.2	–	–	–	–	–	–	solubility [1]: < 70 µM
c1ccc2c(c1)OCCOCCOCCOCCO2 [B15C5, Benzo[b]-1,4,7,10,13-pentaoxa-cyclopentadecane]	–	–	12.5	17.2	14.8	3.03	3.93	logP (Log P): 0.91
c1ccc2c(c1)OCCOCCOc1ccccc1OCCOCCO2 [DB18C6, Dibenzo[b,k]-1,4,7,10,13,16-hexaoxacyclooctadecane]	–	1100 (≈ 396 µg/mL)	38.8	30.8	34.6	4.36-4.49	5.12	NaCl extraction with the ASM replaced by dichloromethane [6]: ≤ 1.6%; logP (Log P): 2.2
c1ccc2c(c1)OCCOCCOCCOc1ccccc1OCCOCCO2 [DB21C7, 6,7,9,10,12,13,20,21,23,24-Decahydrodibenzo[b,k][1,4,7,10,13,16,19] heptaoxacyclohenicosine]	–	–	20.7	9.4	15.2	2.4	4.19	–
c1ccc2c(c1)OCCOCCOCCOc1ccccc1OCCOCCOCCO2 [DB24C8, 6,7,9,10,12,13,20,21,23,24,26,27-Dodecahydrodibenzo[b,n][1,4,7,10,13,16,19,22] octaoxacyclotetracosine]	–	–	37.1	35.5	36.3	2.25 and 2.35	3.61	logP (Log P): 2.11
c1ccc2c(c1)OCCN1CCOCCOCCN(CCO2)CCOc2ccccc2OCC1 [DB[2.2.2], 5,6,14,15-DiBenzo-4,7,13,16,21,24-hexaoxa-1,10-diazabicyclo[8.8.8] hexacosane]	–	2500 (≈ 1180 µg/mL)	–	–	–	7.60	8.74	–
C1CCC2OCCOCCOC3CCCCC3OCCOCCOC2C1 (stereo not shown) [DC18C6, Dicyclohexano-1,4,7,10,13,16-hexaoxacyclooctadecane]	–	36000 (≈ 13400 µg/mL)	30.3	29.1	29.7	4.27	5.97	–
C1CCC2OCCN3CCOCCOCCN(CCOC2C1)CCOC1CCCCC1OCC3 (stereo not shown) [DC[2.2.2], 5,6,14,15-DiCyclohexano-4,7,13,16,21,24-hexaoxa-1,10-diazabicyclo[8.8.8] hexacosane]	–	3000 (≈ 1450 µg/mL)	–	–	–	6.02	6.92	–
